Experimental data published in patent US20100055066A1, “Agent for prophylactic and/or therapeutic treatment of diabetes” (priority 2004, published 2010).

Legend:
Type in all cases: in vivo
SHP = test: Liver SHP gene expression by quantitative PCR after FXR agonist (Example 2); details: KKAy mice, 10 mg/kg orally for 4 days, liver on 5th day, FIG. 6-2
Method: (§1) An FXR agonist, GW-4064 (J. Med. Chem., vol. 43(16), pp. 2971-2974, 2000), was orally administered in a dosage of 10 mg/kg for 4 days. On the 5th day, mice were dissected to isolate the livers.

PEPCK = test: Liver PEPCK gene expression by quantitative PCR after FXR agonist (Example 2); details: KKAy mice, 10 mg/kg orally for 4 days, liver on 5th day, FIG. 7
Method: as §1

cyp7α = test: Liver cyp7α gene expression by quantitative PCR after FXR agonist (Example 2); details: KKAy mice, 10 mg/kg orally for 4 days, liver on 5th day, FIG. 6-1
Method: as §1

CC(C)c1onc(-c2c(Cl)cccc2Cl)c1COc1ccc(/C=C/c2cccc(C(=O)O)c2)c(Cl)c1 [GW-4064]
expression level of the gene for SHP in the liver compared with control group (SHP): increased
expression level of the gene for PEPCK in the liver compared with control group (PEPCK): increased
expression level of the gene for cyp7α in the liver compared with control group (cyp7α): decreased
